# Laboratory results: ChEMBL document CHEMBL3112450, “Synthesis and in vitro antitumor evaluation of primary amine substituted quinazoline linked benzimidazole” (Bioorg Med Chem Lett, 2014)
# Assays:
# Assay type in all cases: functional
# COLO 205 = experiment: Cytotoxicity against human COLO205 cells assessed as cell growth at 10^-5 M after 48 hrs by SRB assay; settings: COLO 205, 48 h, read-out: Activity
# HOP-92 = experiment: Cytotoxicity against human HOP92 cells assessed as growth inhibition at 10 uM after 48 hrs by SRB assay; settings: HOP-92, 48 h, read-out: GI
# OVCAR-3 = experiment: Cytotoxicity against human OVCAR3 cells assessed as cell growth at 10^-5 M after 48 hrs by SRB assay; settings: OVCAR-3, 48 h, read-out: Activity
# SF-268 = experiment: Cytotoxicity against human SF268 cells assessed as cell growth at 10^-5 M after 48 hrs by SRB assay; settings: SF-268, 48 h, read-out: Activity
# SK-MEL-2 = experiment: Cytotoxicity against human SK-MEL-2 cells assessed as cell growth at 10^-5 M after 48 hrs by SRB assay; settings: SK-MEL-2, 48 h, read-out: Activity
# T47D [1] = experiment: Cytotoxicity against human T47D cells assessed as cell growth at 10^-5 M after 48 hrs by SRB assay; settings: read-out: Activity
# Malme-3M = experiment: Cytotoxicity against human MALME-3M cells assessed as cell growth at 10^-5 M after 48 hrs by SRB assay; settings: read-out: Activity
# K562 = experiment: Cytotoxicity against human K562 cells assessed as cell growth at 10^-5 M after 48 hrs by SRB assay; settings: K562, 48 h, read-out: Activity
# [2] = Cytotoxicity against human UO31 cells assessed as cell growth at 10^-5 M after 48 hrs by SRB assay; settings: UO-31, 48 h, read-out: Activity
# PC-3 = experiment: Cytotoxicity against human PC3 cells assessed as cell growth at 10^-5 M after 48 hrs by SRB assay; settings: PC-3, 48 h, read-out: Activity
# SK-OV-3 = experiment: Cytotoxicity against human SKOV3 cells assessed as cell growth at 10^-5 M after 48 hrs by SRB assay; settings: SK-OV-3, 48 h, read-out: Activity
# HL-60(TB) [3] = experiment: Cytotoxicity against human HL-60(TB) cells assessed as cell growth at 10^-5 M after 48 hrs by SRB assay; settings: HL-60, 48 h, read-out: Activity
# [4] = Cytotoxicity against human UACC257 cells assessed as cell growth at 10^-5 M after 48 hrs by SRB assay; settings: UACC-257, 48 h, read-out: Activity
# HCT-15 [5] = experiment: Cytotoxicity against human HCT15 cells assessed as cell growth at 10^-5 M after 48 hrs by SRB assay; settings: HCT-15, 48 h, read-out: Activity
# HCC 2998 [6] = experiment: Cytotoxicity against human HCC2998 cells assessed as cell growth at 10^-5 M after 48 hrs by SRB assay; settings: HCC 2998, 48 h, read-out: Activity
# CAKI-1 [7] = experiment: Cytotoxicity against human Caki1 cells assessed as cell growth at 10^-5 M after 48 hrs by SRB assay; settings: CAKI-1, 48 h, read-out: Activity
# SF-539 = experiment: Cytotoxicity against human SF539 cells assessed as cell growth at 10^-5 M after 48 hrs by SRB assay; settings: SF-539, 48 h, read-out: Activity
# [8] = Cytotoxicity against human OVCAR5 cells assessed as cell growth at 10^-5 M after 48 hrs by SRB assay; settings: OVCAR-5, 48 h, read-out: Activity
# LOX IMVI [9] = experiment: Cytotoxicity against human LOXIMVI cells assessed as cell growth at 10^-5 M after 48 hrs by SRB assay; settings: read-out: Activity
# SK-MEL-28 = experiment: Cytotoxicity against human SK-MEL-28 cells assessed as cell growth at 10^-5 M after 48 hrs by SRB assay; settings: SK-MEL-28, 48 h, read-out: Activity
# UACC-62 = experiment: Cytotoxicity against human UACC62 cells assessed as cell growth at 10^-5 M after 48 hrs by SRB assay; settings: UACC-62, 48 h, read-out: Activity
# SK-MEL-5 = experiment: Cytotoxicity against human SK-MEL-5 cells assessed as cell growth at 10^-5 M after 48 hrs by SRB assay; settings: SK-MEL-5, 48 h, read-out: Activity
# 786-0 [10] = experiment: Cytotoxicity against human 786-0 cells assessed as cell growth at 10^-5 M after 48 hrs by SRB assay; settings: 786-0, 48 h, read-out: Activity
# LOX IMVI [11] = experiment: Cytotoxicity against human LOXIMVI cells assessed as cell growth at 10^-8 M after 48 hrs by SRB assay; settings: read-out: Activity
# T47D [12] = experiment: Cytotoxicity against human T47D cells after 48 hrs by SRB assay
# 786-0 [13] = experiment: Cytotoxicity against human 786-0 cells assessed as cell growth at 10^-7 M after 48 hrs by SRB assay; settings: 786-0, 48 h, read-out: Activity
# MDA-MB-231 [14] = experiment: Cytotoxicity against human MDA-MB-231 cells assessed as cell growth at 10^-7 M after 48 hrs by SRB assay; settings: MDA-MB-231, 48 h, read-out: Activity
# M14 = experiment: Cytotoxicity against human M14 cells assessed as cell growth at 10^-4 M after 48 hrs by SRB assay; settings: M14, 48 h, read-out: Activity
# MDA-MB-231 [15] = experiment: Cytotoxicity against human MDA-MB-231 cells assessed as cell growth at 10^-4 M after 48 hrs by SRB assay; settings: MDA-MB-231, 48 h, read-out: Activity
# [16] = Cytotoxicity against human NCI-ADR-RES cells assessed as cell growth at 10^-6 M after 48 hrs by SRB assay; settings: read-out: Activity
# CAKI-1 [17] = experiment: Cytotoxicity against human Caki1 cells assessed as cell growth at 10^-4 M after 48 hrs by SRB assay; settings: CAKI-1, 48 h, read-out: Activity
# ACHN = experiment: Cytotoxicity against human ACHN cells after 48 hrs by SRB assay
# HCT-15 [18] = experiment: Cytotoxicity against human HCT15 cells assessed as cell growth at 10^-8 M after 48 hrs by SRB assay; settings: HCT-15, 48 h, read-out: Activity
# NCI-H460 = experiment: Cytotoxicity against human NCI-H460 cells assessed as cell growth at 10^-6 M after 48 hrs by SRB assay; settings: NCI-H460, 48 h, read-out: Activity
# CCRF-CEM = experiment: Cytotoxicity against human CCRF-CEM cells assessed as cell growth at 10^-6 M after 48 hrs by SRB assay; settings: read-out: Activity
# NCI-H322M = experiment: Cytotoxicity against human NCI-H322M cells assessed as cell growth at 10^-7 M after 48 hrs by SRB assay; settings: read-out: Activity
# HL-60(TB) [19] = experiment: Cytotoxicity against human HL-60(TB) cells after 48 hrs by SRB assay; settings: HL-60, 48 h
# HCC 2998 [20] = experiment: Cytotoxicity against human HCC2998 cells assessed as cell growth at 10^-4 M after 48 hrs by SRB assay; settings: HCC 2998, 48 h, read-out: Activity
# SF-295 = experiment: Cytotoxicity against human SF295 cells assessed as cell growth at 10^-6 M after 48 hrs by SRB assay; settings: SF-295, 48 h, read-out: Activity
smiles,measurement,setting,value
C=CCn1c(C)nc2ccc(Nc3nc(Nc4ncccn4)nc4ccccc34)cc21,growth at 10 µM,COLO 205,102%
same,inhibition of growth at 10 µM,HOP-92,30%
same,growth at 10 µM,OVCAR-3,99.3%
same,growth at 10 µM,SF-268,94.8%
same,growth at 10 µM,SK-MEL-2,100%
same,growth at 10 µM,T47D [1],55.8%
same,growth at 10 µM,Malme-3M,99%
same,growth at 10 µM,K562,83%
same,growth at 10 µM,[2],82.1%
same,growth at 10 µM,PC-3,89.2%
same,growth at 10 µM,SK-OV-3,104%
same,growth at 10 µM,HL-60(TB) [3],94%
same,growth at 10 µM,[4],101%
same,growth at 10 µM,HCT-15 [5],111%
same,growth at 10 µM,HCC 2998 [6],106%
same,growth at 10 µM,CAKI-1 [7],75.6%
same,growth at 10 µM,SF-539,103%
same,growth at 10 µM,[8],114%
same,growth at 10 µM,LOX IMVI [9],85.3%
same,growth at 10 µM,SK-MEL-28,111%
same,growth at 10 µM,UACC-62,92.6%
same,growth at 10 µM,SK-MEL-5,92.9%
same,growth at 10 µM,786-0 [10],106%
C=CCn1c(C)nc2ccc(Nc3nc(NCCO)nc4ccccc34)cc21,growth at 10 µM,COLO 205,106%
same,inhibition of growth at 10 µM,HOP-92,30%
same,growth at 10 µM,OVCAR-3,98.3%
same,growth at 10 µM,SF-268,92.5%
same,growth at 10 µM,SK-MEL-2,127%
same,growth at 10 µM,T47D [1],95.8%
same,growth at 10 µM,Malme-3M,111%
same,growth at 10 µM,K562,92.2%
same,growth at 10 µM,[2],92.6%
same,growth at 10 µM,PC-3,93.8%
same,growth at 10 µM,SK-OV-3,109%
same,growth at 10 µM,HL-60(TB) [3],114%
same,growth at 10 µM,[4],100%
same,growth at 10 µM,HCT-15 [5],113%
same,growth at 10 µM,HCC 2998 [6],110%
same,growth at 10 µM,CAKI-1 [7],99%
same,growth at 10 µM,SF-539,104%
same,growth at 10 µM,[8],107%
same,growth at 10 µM,LOX IMVI [9],88.5%
same,growth at 10 µM,SK-MEL-28,99.3%
same,growth at 10 µM,UACC-62,92.7%
same,growth at 10 µM,SK-MEL-5,96.5%
same,growth at 10 µM,786-0 [10],95.7%
C=CCn1c(C)nc2cc(Nc3nc(Nc4ccc5nc(C)n(CC=C)c5c4)c4ccccc4n3)ccc21,growth at 0.01 µM,LOX IMVI [11],95%
same,growth at 10 µM,COLO 205,-100%
same,GI50,T47D [12],280 nM
same,LC50,T47D [12],> 100 µM
same,TGI,T47D [12],909 nM
same,growth at 0.1 µM,786-0 [13],98%
same,growth at 0.1 µM,MDA-MB-231 [14],101%
same,growth at 100 µM,M14,-4%
same,growth at 10 µM,OVCAR-3,-100%
same,growth at 10 µM,SF-268,-99%
same,growth at 10 µM,SK-MEL-2,-84.1%
same,growth at 10 µM,T47D [1],-60.4%
same,growth at 10 µM,Malme-3M,-76%
same,growth at 10 µM,K562,-67%
same,growth at 10 µM,[2],-99%
same,growth at 10 µM,PC-3,-100%
same,growth at 10 µM,SK-OV-3,-95.7%
same,growth at 100 µM,MDA-MB-231 [15],-46%
same,growth at 10 µM,HL-60(TB) [3],-70%
same,growth at 10 µM,[4],-79.8%
same,growth at 1 µM,[16],85%
same,growth at 100 µM,CAKI-1 [17],-54%
same,growth at 10 µM,HCT-15 [5],-78%
same,growth at 10 µM,HCC 2998 [6],-98%
same,growth at 10 µM,CAKI-1 [7],-95%
same,GI50,ACHN,610 nM
same,TGI,ACHN,1830 nM
same,growth at 0.01 µM,HCT-15 [18],101%
same,growth at 10 µM,SF-539,-100%
same,growth at 10 µM,[8],-98%
same,growth at 1 µM,NCI-H460,-53%
same,growth at 1 µM,CCRF-CEM,-14%
same,growth at 10 µM,LOX IMVI [9],-94%
same,growth at 10 µM,SK-MEL-28,-88%
same,growth at 10 µM,UACC-62,-94%
same,growth at 10 µM,SK-MEL-5,-95.2%
same,growth at 0.1 µM,NCI-H322M,91%
same,GI50,HL-60(TB) [19],1780 nM
same,TGI,HL-60(TB) [19],3.65 µM
same,growth at 100 µM,HCC 2998 [20],-88%
same,growth at 1 µM,SF-295,78%
same,growth at 10 µM,786-0 [10],-80%
